How the values were obtained:
Assay in all cases: radiometric filter-binding kinase assay, Kinase HotSpot
ACVR1 (human) = ACVR1 (human) (UniProt Q04771); settings: compound 0.5 µM; ATP 10 µM
ACVRL1 (human) = ACVRL1 (human) (UniProt P37023); settings: compound 0.5 µM; ATP 10 µM
AURKB (human) = AURKB (human) (UniProt Q96GD4); settings: compound 0.5 µM; ATP 10 µM
CAMK1 (human) = CAMK1 (human) (UniProt Q14012); settings: compound 0.5 µM; ATP 10 µM
CDK4 CCND1 (human) = CDK4 CCND1 (human) (UniProt P24385+P11802); settings: compound 0.5 µM
CDK5 CDK5R1 p25 (human) = CDK5 CDK5R1 p25 (human) (UniProt Q00535+Q15078); settings: compound 0.5 µM
CLK1 (human) = CLK1 (human) (UniProt P49759); settings: compound 0.5 µM; ATP 10 µM
CSNK1G2 (human) = CSNK1G2 (human) (UniProt P78368); settings: compound 0.5 µM; ATP 10 µM
DYRK4 (human) = DYRK4 (human) (UniProt Q9NR20); settings: compound 0.5 µM; ATP 10 µM
EPHA5 (human) = EPHA5 (human) (UniProt P54756); settings: compound 0.5 µM; ATP 10 µM
EPHB1 (human) = EPHB1 (human) (UniProt P54762); settings: compound 0.5 µM; ATP 10 µM
EPHB3 (human) = EPHB3 (human) (UniProt P54753); settings: compound 0.5 µM; ATP 10 µM
HIPK2 (human) = HIPK2 (human) (UniProt Q9H2X6); settings: compound 0.5 µM; ATP 10 µM
IKBKE (human) = IKBKE (human) (UniProt Q14164); settings: compound 0.5 µM; ATP 10 µM
JAK3 JH1 JH2 (human) = JAK3 JH1 JH2 (human) (UniProt P52333); settings: compound 0.5 µM; ATP 10 µM
MAP2K2 (human) = MAP2K2 (human) (UniProt P36507); settings: compound 0.5 µM; ATP 10 µM
MAP3K14 (human) = MAP3K14 (human) (UniProt Q99558); settings: compound 0.5 µM; ATP 10 µM
MAP3K2 (human) = MAP3K2 (human) (UniProt Q9Y2U5); settings: compound 0.5 µM; ATP 10 µM
Chain of MAP3K2 (human) (Q9Y2U5 whole entry, looked up): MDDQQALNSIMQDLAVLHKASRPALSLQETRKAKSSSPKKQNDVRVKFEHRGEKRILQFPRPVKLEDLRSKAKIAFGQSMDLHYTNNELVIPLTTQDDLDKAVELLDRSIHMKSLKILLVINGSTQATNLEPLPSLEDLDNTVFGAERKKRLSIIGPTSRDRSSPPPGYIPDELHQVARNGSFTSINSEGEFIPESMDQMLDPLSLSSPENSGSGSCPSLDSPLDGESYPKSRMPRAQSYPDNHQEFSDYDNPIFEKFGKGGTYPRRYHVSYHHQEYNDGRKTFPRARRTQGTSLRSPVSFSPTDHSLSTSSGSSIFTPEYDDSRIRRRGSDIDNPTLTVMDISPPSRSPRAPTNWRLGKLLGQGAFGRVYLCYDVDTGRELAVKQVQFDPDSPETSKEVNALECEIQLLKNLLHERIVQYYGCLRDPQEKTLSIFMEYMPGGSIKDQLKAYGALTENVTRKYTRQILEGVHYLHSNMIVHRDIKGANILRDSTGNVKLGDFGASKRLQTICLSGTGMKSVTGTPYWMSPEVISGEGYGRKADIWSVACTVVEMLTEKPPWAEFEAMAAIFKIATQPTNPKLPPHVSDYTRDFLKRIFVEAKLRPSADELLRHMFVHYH

MAP3K3 (human) = MAP3K3 (human) (UniProt Q99759); settings: compound 0.5 µM; ATP 10 µM
MAP3K7 TAB1 (human) = MAP3K7 TAB1 (human) (UniProt O43318+Q15750); settings: compound 0.5 µM; ATP 10 µM
Chain of MAP3K7 TAB1 (human) (O43318 whole entry, looked up): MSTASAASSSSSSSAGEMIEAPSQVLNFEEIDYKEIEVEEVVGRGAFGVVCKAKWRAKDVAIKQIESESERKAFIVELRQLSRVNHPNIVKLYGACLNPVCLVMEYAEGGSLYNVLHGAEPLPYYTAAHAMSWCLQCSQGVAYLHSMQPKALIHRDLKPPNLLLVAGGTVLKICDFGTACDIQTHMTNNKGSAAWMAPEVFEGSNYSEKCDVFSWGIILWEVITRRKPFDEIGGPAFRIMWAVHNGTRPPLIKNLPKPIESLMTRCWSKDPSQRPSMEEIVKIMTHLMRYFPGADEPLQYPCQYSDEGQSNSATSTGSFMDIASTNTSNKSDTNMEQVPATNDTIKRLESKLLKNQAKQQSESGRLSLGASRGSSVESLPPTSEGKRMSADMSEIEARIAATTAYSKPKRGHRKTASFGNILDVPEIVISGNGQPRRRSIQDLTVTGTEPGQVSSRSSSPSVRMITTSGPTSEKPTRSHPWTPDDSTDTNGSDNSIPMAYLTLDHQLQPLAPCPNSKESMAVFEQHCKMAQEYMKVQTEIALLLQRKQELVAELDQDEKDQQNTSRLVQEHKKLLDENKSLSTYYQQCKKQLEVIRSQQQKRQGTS
Chain of MAP3K7 TAB1 (human) (Q15750 whole entry, looked up): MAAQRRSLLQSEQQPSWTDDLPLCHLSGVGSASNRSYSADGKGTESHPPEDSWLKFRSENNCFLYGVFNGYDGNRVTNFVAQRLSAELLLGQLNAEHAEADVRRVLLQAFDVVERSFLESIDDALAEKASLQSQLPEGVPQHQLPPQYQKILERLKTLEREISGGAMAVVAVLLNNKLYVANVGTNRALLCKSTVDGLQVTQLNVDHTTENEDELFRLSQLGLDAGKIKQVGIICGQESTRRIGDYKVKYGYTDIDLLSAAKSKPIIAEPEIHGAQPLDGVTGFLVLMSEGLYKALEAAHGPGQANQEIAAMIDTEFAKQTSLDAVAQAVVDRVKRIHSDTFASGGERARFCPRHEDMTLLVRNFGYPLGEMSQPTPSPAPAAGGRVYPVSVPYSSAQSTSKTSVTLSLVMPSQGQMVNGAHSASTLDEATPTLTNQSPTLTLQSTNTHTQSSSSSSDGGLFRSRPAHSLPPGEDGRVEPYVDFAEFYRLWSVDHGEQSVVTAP

MAP4K4 (human) = MAP4K4 (human) (UniProt O95819); settings: compound 0.5 µM; ATP 10 µM
Chain of MAP4K4 (human) (O95819 whole entry, looked up): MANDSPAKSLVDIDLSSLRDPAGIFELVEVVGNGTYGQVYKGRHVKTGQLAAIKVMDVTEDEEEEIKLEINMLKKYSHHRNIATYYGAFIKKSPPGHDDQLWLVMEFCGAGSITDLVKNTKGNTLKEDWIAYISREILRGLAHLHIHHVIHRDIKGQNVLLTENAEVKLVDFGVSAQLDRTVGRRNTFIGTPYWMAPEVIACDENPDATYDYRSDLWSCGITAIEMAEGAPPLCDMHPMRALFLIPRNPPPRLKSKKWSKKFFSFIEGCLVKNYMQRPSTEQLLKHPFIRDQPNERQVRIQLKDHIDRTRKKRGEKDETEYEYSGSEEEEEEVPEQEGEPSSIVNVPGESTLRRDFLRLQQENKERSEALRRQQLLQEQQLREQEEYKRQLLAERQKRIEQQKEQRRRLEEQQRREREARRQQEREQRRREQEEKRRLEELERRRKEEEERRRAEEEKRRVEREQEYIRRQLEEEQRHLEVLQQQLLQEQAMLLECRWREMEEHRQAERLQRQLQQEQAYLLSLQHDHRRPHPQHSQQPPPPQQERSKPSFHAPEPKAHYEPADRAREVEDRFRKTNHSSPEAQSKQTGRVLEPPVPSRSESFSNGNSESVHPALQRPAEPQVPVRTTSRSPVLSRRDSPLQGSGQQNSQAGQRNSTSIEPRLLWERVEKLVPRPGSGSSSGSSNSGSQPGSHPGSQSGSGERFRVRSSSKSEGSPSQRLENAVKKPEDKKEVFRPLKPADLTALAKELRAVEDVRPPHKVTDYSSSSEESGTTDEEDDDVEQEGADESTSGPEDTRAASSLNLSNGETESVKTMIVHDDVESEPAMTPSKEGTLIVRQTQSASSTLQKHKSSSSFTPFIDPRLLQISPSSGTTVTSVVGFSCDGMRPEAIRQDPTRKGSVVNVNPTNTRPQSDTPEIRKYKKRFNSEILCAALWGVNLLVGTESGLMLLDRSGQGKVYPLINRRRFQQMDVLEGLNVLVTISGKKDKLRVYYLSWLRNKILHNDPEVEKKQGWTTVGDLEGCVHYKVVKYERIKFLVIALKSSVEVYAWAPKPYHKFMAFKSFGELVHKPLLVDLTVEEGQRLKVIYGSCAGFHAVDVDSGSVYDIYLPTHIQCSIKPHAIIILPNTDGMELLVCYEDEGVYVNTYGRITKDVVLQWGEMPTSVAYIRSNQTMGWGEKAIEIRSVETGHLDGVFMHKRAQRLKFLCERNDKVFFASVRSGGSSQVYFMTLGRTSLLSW

MAP4K5 (human) = MAP4K5 (human) (UniProt Q9Y4K4); settings: compound 0.5 µM; ATP 10 µM
MAPK10 (human) = MAPK10 (human) (UniProt P53779); settings: compound 0.5 µM; ATP 10 µM
MARK3 (human) = MARK3 (human) (UniProt P27448); settings: compound 0.5 µM; ATP 10 µM
MINK1 (human) = MINK1 (human) (UniProt Q8N4C8); settings: compound 0.5 µM; ATP 10 µM
Chain of MINK1 (human) (Q8N4C8 whole entry, looked up): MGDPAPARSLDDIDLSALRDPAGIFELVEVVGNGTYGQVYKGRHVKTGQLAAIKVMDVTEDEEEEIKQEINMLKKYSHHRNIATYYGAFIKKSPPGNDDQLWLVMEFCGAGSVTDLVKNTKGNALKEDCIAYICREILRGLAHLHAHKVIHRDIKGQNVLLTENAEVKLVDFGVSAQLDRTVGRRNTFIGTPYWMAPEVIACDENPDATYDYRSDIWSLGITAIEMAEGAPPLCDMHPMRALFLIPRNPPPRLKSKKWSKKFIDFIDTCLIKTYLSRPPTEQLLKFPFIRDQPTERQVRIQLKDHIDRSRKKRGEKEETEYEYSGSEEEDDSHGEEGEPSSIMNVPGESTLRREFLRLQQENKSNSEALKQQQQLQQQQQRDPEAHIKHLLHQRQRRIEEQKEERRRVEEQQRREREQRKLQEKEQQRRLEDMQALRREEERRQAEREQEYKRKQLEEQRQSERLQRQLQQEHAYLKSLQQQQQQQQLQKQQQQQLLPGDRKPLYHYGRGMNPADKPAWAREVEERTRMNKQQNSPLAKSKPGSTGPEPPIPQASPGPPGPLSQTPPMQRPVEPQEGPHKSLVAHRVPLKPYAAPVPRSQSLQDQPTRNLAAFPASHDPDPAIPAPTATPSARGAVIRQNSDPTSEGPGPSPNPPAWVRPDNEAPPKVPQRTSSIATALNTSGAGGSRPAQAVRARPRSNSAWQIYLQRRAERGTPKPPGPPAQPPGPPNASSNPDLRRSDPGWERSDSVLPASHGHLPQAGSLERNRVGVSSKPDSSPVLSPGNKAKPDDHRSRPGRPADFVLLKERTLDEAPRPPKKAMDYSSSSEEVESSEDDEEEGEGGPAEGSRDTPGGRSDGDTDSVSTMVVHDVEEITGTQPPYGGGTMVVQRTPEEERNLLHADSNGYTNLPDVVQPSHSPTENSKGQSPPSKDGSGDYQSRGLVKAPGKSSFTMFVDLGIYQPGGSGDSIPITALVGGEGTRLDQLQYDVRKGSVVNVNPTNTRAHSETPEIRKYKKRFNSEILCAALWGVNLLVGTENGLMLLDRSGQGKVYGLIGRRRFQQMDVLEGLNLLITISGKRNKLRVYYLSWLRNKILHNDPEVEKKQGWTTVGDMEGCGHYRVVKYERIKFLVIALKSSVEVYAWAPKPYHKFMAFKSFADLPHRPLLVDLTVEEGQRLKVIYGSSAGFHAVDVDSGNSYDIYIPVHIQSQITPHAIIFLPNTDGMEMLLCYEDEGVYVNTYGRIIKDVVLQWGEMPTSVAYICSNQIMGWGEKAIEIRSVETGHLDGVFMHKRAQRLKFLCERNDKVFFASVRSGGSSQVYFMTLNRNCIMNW

PIM1 (human) = PIM1 (human) (UniProt P11309); settings: compound 0.5 µM; ATP 10 µM
PLK3 (human) = PLK3 (human) (UniProt Q9H4B4); settings: compound 0.5 µM; ATP 10 µM
PRKCA (human) = PRKCA (human) (UniProt P17252); settings: compound 0.5 µM; ATP 10 µM
PRKCB2 (human) = PRKCB2 (human) (UniProt P05771); settings: compound 0.5 µM; ATP 10 µM
PRKCH (human) = PRKCH (human) (UniProt P24723); settings: compound 0.5 µM; ATP 10 µM
PRKX (human) = PRKX (human) (UniProt P51817); settings: compound 0.5 µM; ATP 10 µM
PTK6 (human) = PTK6 (human) (UniProt Q13882); settings: compound 0.5 µM; ATP 10 µM
[1] = system: SGK1 (human), O00141 [S422D]; settings: compound 0.5 µM; ATP 10 µM
SLK (human) = SLK (human) (UniProt Q9H2G2); settings: compound 0.5 µM; ATP 10 µM
SRPK1 (human) = SRPK1 (human) (UniProt Q96SB4); settings: compound 0.5 µM; ATP 10 µM
SRPK3 (human) = SRPK3 (human) (UniProt Q9UPE1); settings: compound 0.5 µM; ATP 10 µM
STK16 (human) = STK16 (human) (UniProt O75716); settings: compound 0.5 µM; ATP 10 µM
TBK1 (human) = TBK1 (human) (UniProt Q9UHD2); settings: compound 0.5 µM; ATP 10 µM
Chain of TBK1 (human) (Q9UHD2 whole entry, looked up): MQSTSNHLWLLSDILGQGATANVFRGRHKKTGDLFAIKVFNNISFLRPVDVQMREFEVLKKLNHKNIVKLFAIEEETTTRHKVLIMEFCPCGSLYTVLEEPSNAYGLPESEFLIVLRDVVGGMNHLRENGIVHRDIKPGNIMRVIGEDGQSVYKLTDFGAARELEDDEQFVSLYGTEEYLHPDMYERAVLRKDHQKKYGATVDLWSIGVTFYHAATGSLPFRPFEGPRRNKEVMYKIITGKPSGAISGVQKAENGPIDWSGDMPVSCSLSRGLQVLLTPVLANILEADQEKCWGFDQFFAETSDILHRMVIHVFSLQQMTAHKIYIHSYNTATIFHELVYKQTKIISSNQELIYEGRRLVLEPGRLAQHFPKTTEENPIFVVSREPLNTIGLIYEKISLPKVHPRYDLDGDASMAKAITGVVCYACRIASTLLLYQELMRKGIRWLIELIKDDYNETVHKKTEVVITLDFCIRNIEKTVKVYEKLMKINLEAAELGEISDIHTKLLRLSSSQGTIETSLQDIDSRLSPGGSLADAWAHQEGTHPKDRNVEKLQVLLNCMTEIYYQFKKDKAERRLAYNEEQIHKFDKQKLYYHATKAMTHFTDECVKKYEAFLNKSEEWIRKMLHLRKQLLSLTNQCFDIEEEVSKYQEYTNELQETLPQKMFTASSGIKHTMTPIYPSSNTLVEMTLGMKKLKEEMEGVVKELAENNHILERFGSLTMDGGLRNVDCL

TEC (human) = TEC (human) (UniProt P42680); settings: compound 0.5 µM; ATP 10 µM
TTK (human) = TTK (human) (UniProt P33981); settings: compound 0.5 µM; ATP 10 µM
TYRO3 (human) = TYRO3 (human) (UniProt Q06418); settings: compound 0.5 µM; ATP 10 µM
WNK3 (human) = WNK3 (human) (UniProt Q9BYP7); settings: compound 0.5 µM; ATP 10 µM

Compound `O=c1[nH]c2ccccc2n1C1CCN(Cc2ccc(-c3nc4cc5[nH]cnc5cc4nc3-c3ccccc3)cc2)CC1` has a residual activity (ACVR1 (human)) of 102%, a residual activity (ACVRL1 (human)) of 105% and a residual activity (AURKB (human)) of 98.7%. For the same compound, the residual activity (CAMK1 (human)) was 95.1%, the residual activity (CDK4 CCND1 (human)) was 108% and the residual activity (CDK5 CDK5R1 p25 (human)) was 96.9%. For the same compound, the residual activity (CLK1 (human)) was 109%, the residual activity (CSNK1G2 (human)) was 101% and the residual activity (DYRK4 (human)) was 109%. It also gave a residual activity (EPHA5 (human)) of 102%, a residual activity (EPHB1 (human)) of 104% and a residual activity (EPHB3 (human)) of 104%. It also gave a residual activity (HIPK2 (human)) of 110%, a residual activity (IKBKE (human)) of 91.9% and a residual activity (JAK3 JH1 JH2 (human)) of 100%. It also gave a residual activity (MAP2K2 (human)) of 86.6%, a residual activity (MAP3K14 (human)) of 96.8% and a residual activity (MAP3K2 (human)) of 92.4%. For the same compound, the residual activity (MAP3K3 (human)) was 101%, the residual activity (MAP3K7 TAB1 (human)) was 84.1% and the residual activity (MAP4K4 (human)) was 99.5%. The residual activity (MAP4K5 (human)) was 91.9%, the residual activity (MAPK10 (human)) was 96% and the residual activity (MARK3 (human)) was 103%. It also gave a residual activity (MINK1 (human)) of 103%, a residual activity (PIM1 (human)) of 106% and a residual activity (PLK3 (human)) of 99.1%. For the same compound, the residual activity (PRKCA (human)) was 84.3%, the residual activity (PRKCB2 (human)) was 105% and the residual activity (PRKCH (human)) was 101%. The residual activity (PRKX (human)) was 101%, the residual activity (PTK6 (human)) was 91.1% and the residual activity [1] was 102%. It also gave a residual activity (SLK (human)) of 97.7%, a residual activity (SRPK1 (human)) of 106% and a residual activity (SRPK3 (human)) of 107%. The residual activity (STK16 (human)) was 99.5%, the residual activity (TBK1 (human)) was 92.7% and the residual activity (TEC (human)) was 162%. The residual activity (TTK (human)) was 104%, the residual activity (TYRO3 (human)) was 103% and the residual activity (WNK3 (human)) was 106%.
With `O=c1c2ccccc2[nH]c(=S)n1CCN1CCC(=C(c2ccc(F)cc2)c2ccc(F)cc2)CC1` the residual activity (ACVR1 (human)) was 107%, the residual activity (ACVRL1 (human)) was 101% and the residual activity (AURKB (human)) was 102%. It also gave a residual activity (CAMK1 (human)) of 98.6%, a residual activity (CDK4 CCND1 (human); ATP 10 µM) of 99.6% and a residual activity (CDK5 CDK5R1 p25 (human); ATP 10 µM) of 93.5%. The residual activity (CLK1 (human)) was 113%, the residual activity (CSNK1G2 (human)) was 98.6% and the residual activity (DYRK4 (human)) was 97.5%. For the same compound, the residual activity (EPHA5 (human)) was 112%, the residual activity (EPHB1 (human)) was 100% and the residual activity (EPHB3 (human)) was 92.8%. The residual activity (HIPK2 (human)) was 105%, the residual activity (IKBKE (human)) was 101% and the residual activity (JAK3 JH1 JH2 (human)) was 104%. It also gave a residual activity (MAP2K2 (human)) of 101%, a residual activity (MAP3K14 (human)) of 75.7% and a residual activity (MAP3K2 (human)) of 99.6%. For the same compound, the residual activity (MAP3K3 (human)) was 102%, the residual activity (MAP3K7 TAB1 (human)) was 103% and the residual activity (MAP4K4 (human)) was 99.8%. It also gave a residual activity (MAP4K5 (human)) of 98.8%, a residual activity (MAPK10 (human)) of 76.2% and a residual activity (MARK3 (human)) of 107%. It also gave a residual activity (MINK1 (human)) of 94.4%, a residual activity (PIM1 (human)) of 105% and a residual activity (PLK3 (human)) of 96.2%. It also gave a residual activity (PRKCA (human)) of 73.1%, a residual activity (PRKCB2 (human)) of 98.2% and a residual activity (PRKCH (human)) of 102%. The residual activity (PRKX (human)) was 106%, the residual activity (PTK6 (human)) was 100% and the residual activity [1] was 96%. It also gave a residual activity (SLK (human)) of 103%, a residual activity (SRPK1 (human)) of 97.8% and a residual activity (SRPK3 (human)) of 102%. For the same compound, the residual activity (STK16 (human)) was 104%, the residual activity (TBK1 (human)) was 104% and the residual activity (TEC (human)) was 110%. For the same compound, the residual activity (TTK (human)) was 96.3%, the residual activity (TYRO3 (human)) was 91.1% and the residual activity (WNK3 (human)) was 107%.
